These results are taken from patent publication US20230105108A1, “COMPOUNDS FOR THE TREATMENT OF BACTERIAL INFECTIONS AND POTENTIATION OF ANTIBIOTICS” (GEORGIA STATE UNIVERSITY RESEARCH FOUNDATION, INC., priority 2019, published 2023).

Holding throughout (assay type): cell-based
In one experiment the test system is E. coli (ATCC 25922). Nature of the experiment: MIC determination, sensitization fold and FIC index on E. coli. The following applies: for Sensitization fold: E. coli towards the antibiotic, MD-124 5 μg/ml; for MIC of AB with MD-124: E. coli, MD-124 concentration 5 μg/ml; for MIC: Escherichia coli. The procedure: Bacteria culture and MICs determination: Gram-negative bacteria were cultured in Mueller Hinton II cation-adjusted broth. Gram-positive bacteria were cultured in LB broth. Mycobacterium smegmatis was cultured in Middlebrook 7H9 Broth. MICs of antibiotics itself were determined by performing two-fold serial dilutions of antibiotics. MICs of antibiotics in the presence of bacterial sensitizers were determined by performing two-fold serial dilutions of antibiotics with or without a constant concentration of bacterial sensitizers. The MICs tests were performed on 96-well plates with a final volume of 200 μl Mueller Hinton II cation-adjusted broth in each well. Each well was inoculated with 5×10^5 CFU/ml bacteria and was incubated for 24 h at 37° C. with continuous shaking of 200 rpm. The bacterial density was then determined by OD600. Bacterial growth %=OD600 of antibiotic treatment group/OD600 of antibiotic non-treatment group. MICs was determined as the concentrations that inhibit more than 90% of bacteria growth.
Sensitization fold determination and FIC index calculations: Sensitization fold=MIC of antibiotic only/MIC of antibiotic with bacterial sensitizer. […] Since the MICs were determined by performing two-fold serial dilutions of antibiotic, so the sensitization fold can is the times of 2.
FIC index between compound a and b was calculated according to the formula below: […]
FIC≤0.5: Synergy; FIC between 0.5 and 1: Additive; FIC between 1 and […]: no interaction; FIC >4: antagonism.
Bacteria strains (as indicated in Table 5B) were cultured with rifampicin at various concentrations in the presence or absence of 10 μM of the indicated compound for 20 h at 37° C. The MIC, sensitization, cytotoxicity, and MIC on mycobacteria were tested according to methods described herein. […] The sensitization activities of compounds on MRSA were tested using rifampicin. The sensitization activities of compounds on E. coli were tested using rifampicin.

Experiment [1] has as its system A. baumannii (ATCC 17978). The experiment can be described thus: MIC, sensitization fold and FIC index on A. baumannii. The following applies: A. baumannii towards the antibiotic.
The subject of experiment [2] is NDM-1 expressing E. coli strain. Nature of the experiment: microbe, parasite or virus in culture. The following applies: for MIC: Escherichia coli, read-out: MIC on NDM-1 over-expression E. coli.
Experiment [3] deals with mcr-1 over-expressing E. coli strains. The experiment can be described thus: microbe, parasite or virus in culture. As to conditions: Escherichia coli.
The mark [4] stands for this setting: ATCC25922, 24 h, E. coli (wild type), antibiotic alone, read-out: MIC of AB only.
[5] abbreviates: NDM-1 expressing E. coli towards the antibiotic.
Where [6] appears, read: ATCC25922, antibiotic alone (Table 14), read-out: MIC on wild-type E.coli.

Converted amounts (≈) assume the structure as drawn. Where two headings read alike, the source gives them in different places. Where only a bound is given, the exact number is not on record here.

For `COc1cc(Cc2cnc(N)nc2N)cc(OC)c1OC` [Trimethoprim, reference compound], in the experiment with E. coli (ATCC 25922), the Sensitization fold was determined as 2 fold and the “MIC of AB with MD-124” value came to 1.25 mg/L. Besides, in the experiment with E. coli (ATCC 25922) (setting [4]), the MIC was 2.5 mg/L. For the same compound, the “Sensitization fold with 5 μg/ml MD-124” value in experiment [1] is 2 fold.

Turning to `CC1(C)S[C@@H]2[C@H](NC(=O)[C@H](N)c3ccccc3)C(=O)N2[C@H]1C(=O)O` [Ampicillin], the “MIC on wild-type E.coli” value in the experiment on E. coli (ATCC 25922) (antibiotic alone (Table 14)) worked out at 6 mg/L. Also, the “MIC of AB with 5 μg/ml MD-124” value in experiment [2] (NDM-1 expressing E. coli) worked out at 300 mg/L. Further, the “Sensitization fold with 5 μg/ml MD-124” value in experiment [2] (setting [5]) is above 1 fold. The “MFC of AB only” value in experiment [2] (NDM-1 expressing E. coli, antibiotic alone) is above 300 mg/L. Besides, the “MIC on NDM-1 over-expression E. coli” value in experiment [2] (antibiotic alone (Table 14)) was above 300 mg/L.

In the case of `CCOc1ccc2ccccc2c1C(=O)N[C@@H]1C(=O)N2[C@@H]1SC(C)(C)[C@@H]2C(=O)O` [Nafcillin, reference compound], in the experiment on E. coli (ATCC 25922), the Sensitization fold is on record as above 4 fold and the “MIC of AB with MD-124” value worked out at 75 mg/L. In the experiment on E. coli (ATCC 25922) (setting [4]), the MIC is above 300 mg/L. Moreover, the “Sensitization fold with 5 μg/ml MD-124” value in experiment [1] is 2 fold.

`NC[C@H]1O[C@H](O[C@H]2[C@H](O)[C@@H](O[C@H]3O[C@H](CO)[C@@H](O)[C@H](N)[C@H]3O)[C@H](N)C[C@@H]2N)[C@H](O)[C@@H](O)[C@@H]1O` [Kanamycin]: the “Sensitization fold with 5 μg/ml MD-124” value in experiment [1] is 2 fold.

In the case of `CC(C)(O/N=C(\C(=O)N[C@@H]1C(=O)N2C(C(=O)[O-])=C(C[n+]3ccccc3)CS[C@H]12)c1csc(N)n1)C(=O)O` [Ceftazidime, reference compound], the MIC in the experiment with E. coli (ATCC 25922) (setting [6]) was below 0.2 mg/L; in experiment [2] (antibiotic alone (Table 14)), above 6.25 mg/L.

In the case of `C[C@@H](O)[C@H]1C(=O)N2C(C(=O)O)=C(S[C@@H]3CN[C@H](C(=O)N(C)C)C3)[C@H](C)[C@H]12` [Meropenem, reference compound], the Sensitization fold in the experiment on E. coli (ATCC 25922) worked out at 1 fold. The “MIC of AB with MD-124” value in the experiment with E. coli (ATCC 25922) stood at 0.063 mg/L. For the same compound, the MIC is 0.063 mg/L in the experiment on E. coli (ATCC 25922) (setting [4]), 0.03 mg/L in the experiment on E. coli (ATCC 25922) (setting [6]) and 12.5 mg/L (≈ 32.6 µM) in experiment [2] (antibiotic alone (Table 14)). Also, the “Sensitization fold with 5 μg/ml MD-124” value in experiment [2] (setting [5]) worked out at 2 fold.

Take `CC[C@H]1OC(=O)[C@H](C)[C@@H](O[C@H]2C[C@@](C)(OC)[C@@H](O)[C@H](C)O2)[C@H](C)[C@@H](O[C@@H]2O[C@H](C)C[C@H](N(C)C)[C@H]2O)[C@](C)(OC)C[C@@H](C)C(=O)[C@H](C)[C@@H](O)[C@]1(C)O` [Clarithromycin]: the MIC in experiment [3] (mcr-1 over-expression E. coli strain (MIC of polymyxin B 30 μg/ml), read-out: MIC of AB only) is 25 mg/L; in experiment [3] (read-out: MIC of AB with 5 μg/ml MD-124, mcr-1 over-expression E. coli strain (MIC of polymyxin B 30 μg/ml)) it was at most 0.2 mg/L.

`CN(C)[C@@H]1C(O)=C(C(N)=O)C(=O)[C@@]2(O)C(O)=C3C(=O)c4c(O)cccc4[C@@](C)(O)[C@H]3C[C@@H]12` [Tetracycline, reference compound]: in the experiment on E. coli (ATCC 25922), the Sensitization fold is recorded as 2 fold and the “MIC of AB with MD-124” value is 0.6 mg/L. For the same compound, the MIC in the experiment on E. coli (ATCC 25922) (setting [4]) is 1.2 mg/L. Also, the “Sensitization fold with 5 μg/ml MD-124” value in experiment [1] came to 2 fold. The “Sensitization fold with 5 μg/ml MD-124” value in experiment [2] came out at 4 fold.

As to `O=C(O)c1cn(C2CC2)c2cc(N3CCNCC3)c(F)cc2c1=O` [Ciprofloxacin, reference compound], in the experiment with E. coli (ATCC 25922), the Sensitization fold was 4 fold and the “MIC of AB with MD-124” value was found to be 0.0125 mg/L. Besides, in the experiment on E. coli (ATCC 25922) (setting [4]), the MIC came to 0.05 mg/L. Moreover, the “Sensitization fold with 5 μg/ml MD-124” value in experiment [1] worked out at 4 fold.
